Patent US12408664B2 (priority 2018, dated 2025)

Assays:
G. graminis [1] = experiment: New inoculants in MEB liquid culture amended with calcium propionate; format: cell-based, Gaeumannomyces graminis; conditions: MEB with 1, 2, 5 and 10% (w/v) calcium propionate; five days
Protocol: (§1) To examine the effective dose range in liquid culture, malt extract broth (MEB) was prepared and amended with calcium propionate at concentrations of 1, 2, 5 and 10% (w/v). Unamended MEB was used as a control for growth. Each of the four microbes identified in Example 1 was tested twice by inoculating MEB using agarose plugs from luxuriant cultures. Growth was observed over five days. In each microbe examined, visible growth in liquid culture was apparent by day 2 following inoculation with well-established growth by 4 days in the absence of calcium propionate.

S. homoeocarpa [2] = experiment: Established liquid cultures, two days calcium propionate then washout; format: cell-based, Scerotinia homoeocarpa
Protocol: (§2) To further examine the impact of calcium propionate on established liquid cultures, MEB was inoculated by plug transfer and cultures were allowed to grow for one to six days. Following this, calcium propionate was added to active cultures to a final concentration of 1%, 2%, or 5% (w/v); control cultures had no calcium propionate. Calcium propionate was then added to established one to six day old cultures and cultures were allowed to grow in the presence of calcium propionate for two days, after which, calcium propionate was washed out and cultures were returned to MEB only. Growth following calcium propionate washout was recorded over 14 days.

dollar spot [3] = experiment: Golf Course 2: infected live turfgrass, visual detection of dollar spot; format: in vivo, Scerotinia homoeocarpa; conditions: 3-4 grams per square meter every 10 days, 5% (w/v) solution sprayed; 10 days following initial application
Protocol: (§3) Calcium propionate was dissolved in water to form a 5% (w/v) solution. […] The turfgrass was comprised primarily of Agrostis capillaris. The calcium propionate 5% (w/v) solution was sprayed onto the turfgrass at a concentration of 3-4 grams per square meter every 10 days.

dollar spot [4] = experiment: Golf Course 1: infected live turfgrass, visual inspection for dollar spot; format: in vivo, Scerotinia homoeocarpa
Protocol: (§4) Calcium propionate was dissolved in water to form a 5% (w/v) solution. […] Zone 1 was left untreated, Zone 2 was treated with 2.5 grams calcium propionate per square meter, Zone 3 was treated with 5 grams of calcium propionate per square meter, and Zone 4 was treated with 10 grams of calcium propionate per square meter. The turfgrass was comprised primarily of Festuca rubra. The calcium propionate 5% (w/v) solution was sprayed onto the turfgrass.
(§5) The four zones were visually inspected for dollar spot after 10 days. […] In contrast, dollar spot could, still be visually detected in untreated Zone 1.
Thereafter, all of the zones (1-4) were treated with 5 grams of calcium propionate per square meter. The calcium propionate 5% (w/v) solution was sprayed onto the turfgrass every 10 to 14 days.

R. solani [5] = experiment: New inoculants in MEB liquid culture amended with calcium propionate; format: cell-based, Rhizoctonia solani; conditions: MEB with 1, 2, 5 and 10% (w/v) calcium propionate; five days
Protocol: as §1

S. homoeocarpa [6] = experiment: Zone of inhibition assay on PDA plates; format: cell-based, Scerotinia homoeocarpa
Protocol: (§6) To test the efficacy of calcium propionate (CaP) against the four microbes listed above, zone of inhibition assays were performed. Wells were bored in potato dextrose agarose (PDA) plates then amended with […] calcium propionate at concentrations of 0.1%, 0.2%, 0.3%, 0.4%, and 0.5% (w/v). Control plates were amended with […] dH2O. Plates were inoculated using plugs from active cultures. Growth patterns were observed over seven days. Representative results with M. poae are shown at three days following inoculation (FIG. 1A) and seven days following inoculation (FIG. 1B).
(§7) The zone of inhibition assays described in Example 1 were performed using calcium propionate doses of 0.5%, 1%, 2%, 3%, and 4% (w/v). Growth diameter was recorded at 2, 5, and 7 days post inoculation. The data shown in Table 1 represent the average±standard deviation (SD) of two replicate plates for each strain tested.
(§8) Zone of inhibition assays using PDA plates amended with 5-12% (w/v) calcium propionate were performed as described above. As a control, plates were amended with a composition comprising propiconazole, a commonly used fungicidal treatment for microbe infection of turfgrass, sold under the trademark Banner MaxxII®. Growth diameter was recorded for 13 days post inoculation. The data shown in Table 2 represent the average±standard deviation (SD) of three replicate plates for each strain tested. Inoculants of S. homoeocarpa, M. poae, and R. solani generally grow to luxuriant culture, covering the entire surface of the plate (8.5 cm growth) in 7 days.

G. graminis [7] = experiment: Zone of inhibition assay on PDA plates; format: cell-based, Gaeumannomyces graminis
Protocol: as §6, §7, §8

S. homoeocarpa [8] = experiment: Plug transfer to PDA plates without calcium propionate (fungistatic or fungicidal); format: cell-based, Scerotinia homoeocarpa
Fusarium oxysporum = experiment: Golf Course 2: infected live turfgrass, visual detection of Fusarium oxysporum infection; format: in vivo; conditions: 3-4 grams per square meter every 10 days, 5% (w/v) solution sprayed; 10 days following initial application
Protocol: as §3

R. solani [9] = experiment: Established liquid cultures, two days calcium propionate then washout; format: cell-based, Rhizoctonia solani
Protocol: as §2

R. solani [10] = experiment: Zone of inhibition assay on PDA plates; format: cell-based, Rhizoctonia solani
Protocol: as §6, §7, §8

M. poae = format: cell-based, Magnaporthe poae; conditions: MEB with 1, 2, 5 and 10% (w/v) calcium propionate; five days
turfgrass = experiment: Golf Course 1: appearance of treated turfgrass; format: in vivo, Festuca rubra; conditions: after 10 days
Protocol: as §4, §5

[11] = 1%, 2% or 5% (w/v), established one to six day old cultures, two days
[12] = all concentrations tested (1-5% w/v)
[13] = 5-12% (w/v) calcium propionate, day 2, average ± SD of three plates
[14] = 5-12% (w/v) calcium propionate, day 3, average ± SD of three plates
[15] = 5-12% (w/v) calcium propionate, day 6, average ± SD of three plates
[16] = 5-12% (w/v) calcium propionate, day 7, average ± SD of three plates
[17] = 5-12% (w/v) calcium propionate, day 10, average ± SD of three plates
[18] = 5-12% (w/v) calcium propionate, day 13, average ± SD of three plates
[19] = wells 0.1-0.5% (w/v) calcium propionate, observed over seven days
[20] = wells 0.5-4% (w/v) calcium propionate, day 2, average ± SD of two plates
[21] = wells 0.5-4% (w/v) calcium propionate, day 5, average ± SD of two plates
[22] = wells 0.5-4% (w/v) calcium propionate, day 7, average ± SD of two plates

CCC(=O)[O-].CCC(=O)[O-].[Ca+2] [calcium propionate]
growth in liquid culture, G. graminis (G. graminis [1]): no growth was observed
growth recovery over 14 days after removal, S. homoeocarpa (S. homoeocarpa [2]; 1% or 2% (w/v) calcium propionate): varying degrees of growth recovery
growth while calcium propionate was present, S. homoeocarpa (S. homoeocarpa [2]; [11]): growth was inhibited
growth recovery over 14 days after removal, S. homoeocarpa (S. homoeocarpa [2]; 5% (w/v) treatment): no growth recovery was observed
growth three days following removal of calcium propionate, S. homoeocarpa (S. homoeocarpa [2]; [12]): continued growth inhibition
visual detection of dollar spot infection (dollar spot [3]): could no longer be visually detected
visual detection of dollar spot (dollar spot [4]; Zone 2: 2.5 grams per square meter, 5% (w/v) solution sprayed, after 10 days): could no longer be visually detected
visual detection of dollar spot (dollar spot [4]; Zone 3: 5 grams per square meter, 5% (w/v) solution sprayed, after 10 days): could no longer be visually detected
visual detection of dollar spot (dollar spot [4]; Zone 4: 10 grams per square meter, 5% (w/v) solution sprayed, after 10 days): could no longer be visually detected
visual detection of dollar spot (dollar spot [4]; zones 1-4, 5 grams per square meter every 10 to 14 days, several months (late summer to early spring)): could not be visually detected
growth in liquid culture, R. solani (R. solani [5]): no growth was observed
growth inhibition in repeated experiments, S. homoeocarpa (S. homoeocarpa [6]; 2-4% (w/v) calcium propionate, repeat, data not shown): mixed
Growth, S. homeocarpa (S. homoeocarpa [6]; [13]): 2.8 ± 0.2 cm
Growth, S. homeocarpa (S. homoeocarpa [6]; [14]): 3.5 ± 0.3 cm
Growth, S. homeocarpa (S. homoeocarpa [6]; [15]): 3.8 ± 0.1 cm
Growth, S. homeocarpa (S. homoeocarpa [6]; [16]): 4.3 ± 0.3 cm
Growth, S. homeocarpa (S. homoeocarpa [6]; [17]): 6.2 ± 0.3 cm
Growth, S. homeocarpa (S. homoeocarpa [6]; [18]): 7.8 ± 0.6 cm
growth inhibition, S. homoeocarpa (S. homoeocarpa [6]; [19]): no growth inhibition was observed
Growth, S. homeocarpa (S. homoeocarpa [6]; [20]): 1.9 ± 0.3 cm
Growth, S. homeocarpa (S. homoeocarpa [6]; [21]): 4.5 ± 0.5 cm
Growth, S. homeocarpa (S. homoeocarpa [6]; [22]): 6.08±0.57 cm
Growth, S. homeocarpa (S. homoeocarpa [6]; wells 0.5-4% (w/v) calcium propionate, day 7, average ± SD of two plates, listed as Cap): 4.5 ± 0.6 cm
growth inhibition, S. homoeocarpa (S. homoeocarpa [6]; wells 0.5-4% (w/v) calcium propionate, seven day growth period): clear growth inhibition
Growth, G. graminis (G. graminis [7]; [13]): 1.2 ± 0.3 cm
Growth, G. graminis (G. graminis [7]; [14]): 2.2 ± 0.3 cm
Growth, G. graminis (G. graminis [7]; [15]): 2.7 ± 0.3 cm
Growth, G. graminis (G. graminis [7]; [16]): 4.0±0.6 cm
Growth, G. graminis (G. graminis [7]; [17]): 5.9 ± 0.5 cm
Growth, G. graminis (G. graminis [7]; [18]): 8.3 ± 0.3 cm
growth inhibition, G. graminis (G. graminis [7]; [19]): no growth inhibition was observed
growth inhibition, G. graminis (G. graminis [7]; wells 0.5-4% (w/v) calcium propionate, 2 and 5 days post inoculation): growth inhibition
growth difference versus control plates, G. graminis (G. graminis [7]; wells 0.5-4% (w/v) calcium propionate, 7 days post inoculation): no growth difference was observed
Growth, G. graminis (G. graminis [7]; [20]): 1.6 ± 0.1 cm
Growth, G. graminis (G. graminis [7]; [21]): 4.7 ± 0.2 cm
Growth, G. graminis (G. graminis [7]; [22]): 7 ± 0.1 cm
fungistatic or fungicidal effect, S. homoeocarpa (S. homoeocarpa [8]; 5% (w/v) calcium propionate): fungicidal effect
growth on unamended PDA after plug transfer, S. homoeocarpa (S. homoeocarpa [8]; plugs initially grown on 5, 7.5, 10 or 12% (w/v) calcium propionate, observed 14 days): No growth was seen
visual detection of Fusarium oxysporum infection (Fusarium oxysporum): could no longer be visually detected
growth while calcium propionate was present, R. solani (R. solani [9]; [11]): growth was inhibited
growth inhibition over two weeks after removal, R. solani (R. solani [9]; [12]): some minor growth inhibition
growth three days following removal of calcium propionate, R. solani (R. solani [9]; concentrations examined (1-5% w/v)): robust growth was observed
Growth, R. solani (R. solani [10]; [13]): 2.6 ± 0.3 cm
Growth, R. solani (R. solani [10]; [14]): 4.3 ± 0.3 cm
Growth, R. solani (R. solani [10]; [15]): 8.5 ± 0 cm
Growth, R. solani (R. solani [10]; [16]): 8.5 ± 0 cm
Growth, R. solani (R. solani [10]; [17]): 8.5 ± 0 cm
Growth, R. solani (R. solani [10]; [18]): 8.5 ± 0 cm
inhibition of R. solani growth (R. solani [10]; calcium propionate concentrations up to 12% (w/v)): no inhibition
growth inhibition, R. solani (R. solani [10]; [19]): no growth inhibition was observed
growth inhibition, R. solani (R. solani [10]; wells 0.5-4% (w/v) calcium propionate): uninhibited
Growth, R. solani (R. solani [10]; [20]): 3.3 ± 0.4 cm
Growth, R. solani (R. solani [10]; [21]): 8.5 ± 0 cm
Growth, R. solani (R. solani [10]; [22]): 8.5 ± 0 cm
growth in liquid culture, M. poae (M. poae): no growth was observed
appearance of the turfgrass (turfgrass; Zone 2: 2.5 grams per square meter): appeared healthy
appearance of the turfgrass (turfgrass; Zone 3: 5 grams per square meter): appeared healthy
effect on the turfgrass (turfgrass; Zone 4: 10 grams per square meter): burning effect
